Experimental data as given in ChEMBL document CHEMBL5614413, “Design, synthesis and biological evaluation of amphiphilic benzopyran derivatives as potent antibacterial agents against multidrug-resistant bacteria” (Eur J Med Chem, 2024).
≈ marks a conversion by molar mass, not a printed value. Calls of active or inactive are those of the source. No cut-off for these calls is given here.

Key:
Escherichia coli = experiment: Antibacterial activity against penicillin-susceptible Escherichia coli ATCC 25922; type: functional
Staphylococcus aureus [1] = experiment: Bactericidal activity against methicillin-resistant Staphylococcus aureus ATCC 43300 in presence of 50% human plasma by Mueller Hinton broth based assay; type: functional
Staphylococcus aureus [2] = experiment: Disruption of preformed biofilm in methicillin-resistant Staphylococcus aureus ATCC 43300 assessed as eradication of biofilm by crystal violet staining method; type: functional, organism-based; conditions: dose 2-64 µg/ml
Enterococcus faecalis = experiment: Antibacterial activity against vancomycin-susceptible Enterococcus faecalis ATCC 29212; type: functional
Staphylococcus aureus [3] = experiment: Antibacterial activity against methicillin-resistant Staphylococcus aureus ATCC 43300; type: functional
Staphylococcus aureus [4] = experiment: Bactericidal activity against methicillin-resistant Staphylococcus aureus ATCC 43300 in presence of 50% human serum by Mueller Hinton broth based assay; type: functional
Staphylococcus aureus [5] = experiment: (§1) Antibacterial activity against methicillin-resistant Staphylococcus aureus ATCC 43300 infected in sepsis mouse model assessed as reduction in bacterial load in liver at 5 mg/kg pre-infected with bacteria for 1 hrs followed by continuous compound administration at 12 hrs intervals for 2 days (reference value: 7.16 log10CFU/g); type: functional; conditions: time 2 day
Staphylococcus aureus [6] = experiment: Disruption of preformed biofilm in methicillin-resistant Staphylococcus aureus ATCC 43300 assessed as eradication of biofilm at 8 microg/ml by crystal violet staining based analysis relative to control; type: functional; conditions: dose 8 µg/ml
Staphylococcus aureus [7] = experiment: Inhibition of biofilm formation in methicillin-resistant Staphylococcus aureus ATCC 43300 at 8 microg/ml relative to control; type: functional
Staphylococcus aureus [8] = experiment: Induction of ROS production in methicillin-resistant Staphylococcus aureus ATCC 43300 assessed as fold increase in ROS level at 32 microg/ml by DCFH-DA staining based analysis; conditions: dose 32 µg/ml
Cell membrane [9] = experiment: Disruption of cell membrane in methicilin-resistant Staphylococcus aureus ATCC 43300 assessed as appearance of collapsed cell membrane by scanning electron microscopic analysis; type: cell membranes
[10] = tested on: Staphylococcus epidermidis; experiment: Antibacterial activity erythromycin-susceptible Staphylococcus epidermidis ATCC 12228; type: functional
Staphylococcus aureus [11] = experiment: (§2) Antibacterial activity against methicillin-resistant Staphylococcus aureus ATCC 43300 infected in sepsis mouse model assessed as reduction in number of surviving bacterial colonies in spleen at 10 mg/kg pre-infected with bacteria for 1 hrs followed by continuous compound administration at 12 hrs intervals for 2 days relative to control; type: functional; conditions: time 2 day
Staphylococcus aureus [12] = experiment: Bactericidal activity against methicillin-resistant Staphylococcus aureus ATCC 43300 assessed as bacterial killing at 16 microg/ml measured after 4 hrs by time-kill kinetics analysis relative to control; type: functional; conditions: dose 16 µg/ml
Staphylococcus aureus [13] = experiment: as §1, with “blood” for “liver”, “3.69 log10CFU/ml)” for “7.16 log10CFU/g)”; type: functional; conditions: time 2 day
Pseudomonas aeruginosa = experiment: Antibacterial activity against penicillin-susceptible Pseudomonas aeruginosa ATCC 27853; type: functional
Cell membrane [14] = experiment: Disruption of cell membrane integrity in methicillin-resistant Staphylococcus aureus ATCC 43300 assessed as appearance of red fluorescence by DAPI/PI staning based microscopic analysis; type: cell membranes
Cell membrane [15] = experiment: Induction of cytoplasmic membrane depolarization in methicillin-resistant Staphylococcus aureus ATCC 43300 assessed as increase in fluorescence intensity at 2 microg/ml by DiSC3(5) dye-based fluorescence assay; type: cell membranes; conditions: dose 2.0 µg/ml
Cell membrane [16] = experiment: Induction of cytoplasmic membrane depolarization in methicillin-resistant Staphylococcus aureus ATCC 43300 assessed as fold increase in fluorescence intensity at 16 microg/ml measured within 20 min by DiSC3(5) dye-based fluorescence assay; type: cell membranes; conditions: dose 16.0 µg/ml
Staphylococcus aureus [17] = experiment: as §1, with “10” for “5”; type: functional; conditions: time 2 day
Cell membrane [18] = experiment: Disruption of cell membrane in methicilin-resistant Staphylococcus aureus ATCC 43300 assessed as appearance of wrinkled cell membrane by scanning electron microscopic analysis; type: cell membranes
Staphylococcus aureus [19] = experiment: Inhibition of biofilm formation in methicillin-resistant Staphylococcus aureus ATCC 43300 at 2 microg/ml relative to control; type: functional
Staphylococcus aureus [20] = experiment: Bactericidal activity against methicillin-resistant Staphylococcus aureus ATCC 43300 in presence of 50% human blood by Mueller Hinton broth based assay; type: functional; conditions: ATCC 43300, Blood, time <= 6 hrs
Staphylococcus aureus [21] = experiment: Bactericidal activity against methicillin-resistant Staphylococcus aureus ATCC 43300 assessed as log reduction in bacterial growth at 16 microg/ml measured after 4 hrs by time-kill kinetics analysis; type: functional; conditions: dose 16 µg/ml
Staphylococcus aureus [22] = experiment: as §2, with “kidney” for “spleen”, “5” for “10”; type: functional; conditions: time 2 day
Staphylococcus aureus [23] = experiment: Antibacterial activity against methicillin-resistant Staphylococcus aureus ATCC 43300 at 1/2 times of MIC measured after 20 passage; type: functional, organism-based
Staphylococcus aureus [24] = experiment: Inhibition of biofilm formation in methicillin-resistant Staphylococcus aureus ATCC 43300 at 16 microg/ml relative to control; type: functional
Staphylococcus aureus [25] = experiment: as §2, with “kidney” for “spleen”; type: functional; conditions: time 2 day
[26] = Hemolytic activity in sheep RBC; type: toxicity, cell-based, Ovis aries, Erythrocyte; conditions: sheep red blood cells (erythrocytes)
Staphylococcus aureus [27] = experiment: as §2, with “liver” for “spleen”, “5” for “10”; type: functional; conditions: time 2 day

Compound: CCCCN(CCCC)CCCNCCCOc1c(C(C)=O)ccc2c1C=CC(C)(CCC=C(C)C)O2 (stereo not given)
- MIC (Escherichia coli): 4 µg/mL (≈ 7.8 µM)
- MBC (Staphylococcus aureus [1]): 16 µg/mL
- Activity (Staphylococcus aureus [2]): Dose-Dependent Effect
- MIC (Enterococcus faecalis): 4 µg/mL (≈ 7.8 µM)
- MIC (Staphylococcus aureus [3]): 2 µg/mL (≈ 3.9 µM)
- MBC (Staphylococcus aureus [4]): 16 µg/mL
- Activity (Staphylococcus aureus [5]): 1.98 log10CFU/g
- Activity (Staphylococcus aureus [6]): 26.69%
- inhibition at 8 µg/mL (Staphylococcus aureus [7]): 37.2%
- fold change (FC) (Staphylococcus aureus [8]): 5
- Activity (Cell membrane [9]): Active
- MIC [10]: 1 µg/mL (≈ 1.95 µM)
- Activity (Staphylococcus aureus [11]): 99.4%
- Activity (Staphylococcus aureus [12]): >=99.9%
- Activity (Staphylococcus aureus [13]): 1.1 log10CFU/ml
- MIC (Pseudomonas aeruginosa): 32 µg/mL (≈ 62.4 µM)
- Activity (Cell membrane [14]): Active
- Activity (Cell membrane [15]): inactive
- fold change (FC) (Cell membrane [16]): 15
- Activity (Staphylococcus aureus [17]): 2.69 log10CFU/g
- Activity (Cell membrane [18]): Active
- inhibition at 2 µg/mL (Staphylococcus aureus [19]): 8.46%
- MBC (Staphylococcus aureus [20]): 32 µg/mL
- log(activity) (Staphylococcus aureus [21]): 8.35
- Activity (Staphylococcus aureus [22]): 99.2%
- Activity (Staphylococcus aureus [23]): Active
- inhibition at 16 µg/mL (Staphylococcus aureus [24]): > 92%
- Activity (Staphylococcus aureus [25]): 99.9%
- HC50 [26]: 131 µg/mL
- Activity (Staphylococcus aureus [27]): 98.9%
